The test system of assay [1] is ovariectomised female Sprague Dawley rats. The assay is described as follows: Plasma sexual hormone levels (radioimmunoassay) in ovariectomised female rats. The format is in vivo, rat. The method, then: Ovariectomised adult female Sprague Dawley rats (180-200 g) were housed in groups of 6 in a reversed lighting system of 12 h light:dark (lights off 7.00-19.00 h). They were used for the experiments at least two weeks after ovariectomy. Forty eight hours before tests, the animals were primed with oestradiol benzoate (5 μg/0.1 ml in corn oil, s.c.). Progesterone (0.5 mg/0.1 ml, in corn oil, s.c.) was administered 4 h before blood collection, as a positive control. Compound (1) (3-10 mg/kg, i.p.) was administered in 50% 2-hydroxypropyl-β-cyclodextrin, 1 h prior to blood collection. Blood was collected from the trunk, after decapitation. It was immediately centrifuged (3500 r.p.m., 4° C., 5 min) and the plasmas frozen until assayed for hormonal content, using commercially available radioimmunoassay kits (^125I-labelled hormones) for oestradiol, progesterone, LH, FSH and prolactin.

For assay [2] the test system is unchanged. The assay can be described thus: Female rat sexual receptivity (lordosis quotient). The format is in vivo. To be noted: Example 2; quinelorane 6.25 μg/kg s.c., 90 min; Compound (1) 10 mg/kg i.p., 1 h. The method, then: Ovariectomised adult female Sprague Dawley rats (180-200 g, from Charles River) were housed in groups of 6 in a reversed lighting system of 12 h light:dark (lights off 7.00-19.00 h). Two weeks after ovariectomy they were used for sexual activity tests. The experiments started at least 5 h into the dark period.
Compound (1) was dissolved in 100% β-cyclodextrin and then diluted with saline to a final solution of 50% 2-hydroxypropyl-β-cyclodextrin. It was administered intraperitoneally (i.p.) at a dose of 10 mg/kg, in a dosing volume of 1 ml/kg. Quinelorane (6.25 μg/kg) was dissolved in water and administered s.c. as positive control. Forty eight hours before testing, ovariectomised female rats (as described above), were primed with 5 μg oestradiol benzoate dissolved in corn oil and injected subcutaneously. […] The females were placed with a series of vigorous male rats and subjected to 10 mounts.
The lordotic response of the animal was recorded and expressed as a percentage of the mounts (i.e. lordosis quotient, LQ), as previously described. Animals showing LQ<20 were considered non-receptive and were included in the study. Each rat was tested prior to administration of the compound and then tested similarly post-injection. The pre-treatment times were 1 h for Compound (1) and vehicle (50% β-cyclodextrin, i.p.) or 90 min for quinelorane.
The above compound was dissolved in PEG200 vehicle and administered orally. Quinelorane dihydrochloride (LY 163,502, 6.25 μg/kg) was dissolved in water and administered subcutaneously (s.c.), as a positive control. Both compounds were administered in a 1 ml/kg volume.
Forty eight hours before tests, the animals were primed with 5 μg oestradiol benzoate (Sigma Chemical. Co. Ltd., UK) dissolved in corn oil and injected subcutaneously. The females were placed with a series of vigorous male rats and subjected to 10 mounts. The lordotic response of the animal was recorded and expressed as a percentage of the mounts (i.e. lordosis quotient, LQ). […] Animals showing higher LQ were not included in the study. Each rat was tested prior to administration of the compound and then tested similarly at 1 h and 90 min post-injection of the above compound or quinelorane respectively.

The subject of assay [3] is Female New Zealand rabbits. The assay is described as follows: Pelvic nerve-stimulated female genital blood flow, anaesthetised rabbit model of sexual arousal. The format is in vivo. To be noted: 15 mg/kg sc. The method, then:
Female New Zealand rabbits (2.5 kg) were pre-medicated with a combination of Medetomidine (Domitor®) 0.5 ml/kg im., and Ketamine (Vetalar®) 0.25 ml/kg i.m. whilst maintaining oxygen intake via a face mask. The rabbits were tracheotomised using a Portex™ uncuffed endotracheal tube 3 ID., connected to ventilator and maintained at a ventilation rate of 30-40 breaths per minute, with an approximate tidal volume of 18-20 ml, and a maximum airway pressure of 10 cm H2O. Anaesthesia was then switched to Isoflurane and ventilation continued with O2 at 2 l/min. The right marginal ear vein was cannulated using a 23G or 24G catheter, and Lactated Ringer solution perfused at 0.5 ml/min. The rabbit was maintained at 3% Isoflurane during invasive surgery, dropping to 2% for maintenance anaesthesia.
The left groin area of the rabbit was shaved and a vertical incision was made approximately 5 cm in length along the thigh. […] Systolic and diastolic pressures were measured, and the mean arterial pressure calculated using the formula (diastolic ×2+systolic)÷3. Heart rate was measured via the pulse oxymeter and Po-ne-mah data acquisition software system (Ponemah Physiology Platform, Gould Instrument Systems Inc). […] A frequency response curve was determined at the start of each experiment in order to determine the optimum frequency to use as a sub-maximal response, normally 4 Hz. […]

[4] abbreviates: Compound (1) 3-10 mg/kg 1 h, progesterone 0.5 mg/0.1 ml s.c. 4 h before blood collection, vs vehicle.
Setting [5] is: Compound (1) 3-10 mg/kg, 1 h before blood collection.

In the case of `COc1ccc(C2(CNC(=O)[C@](C)(Cc3c[nH]c4ccccc34)NC(=O)Nc3ccc([N+](=O)[O-])cc3)CCCCC2)nc1` [Compound (1), (S) 3-(1H-Indol-3-yl)-N-[1-(5-methoxy-pyridin-2-yl)-cyclohexyl-methyl]-2-methyl-2-[3-(4-nitro-phenyl)-ureido]-propionamide], in assay [1] (setting [4]), the LH plasma levels result is given as “no effect” and the progesterone plasma levels entry is recorded as “no effect”. In addition, in assay [1] (setting [5]), the FSH plasma levels result is reported as “no effect”, the oestradiol plasma levels result is recorded as “no effect” and the prolactin plasma levels result was “no effect”. For the same compound, in assay [2], the “lordosis quotient (LQ) compared to LQ before administration” value was “significant (P<0.05) stimulatory effect on the LQ”. The “pelvic-nerve stimulated (PNS) increases in genital (vaginal and clitoral) blood flow” value in assay [3] is listed as “potent enhancer”.

Values taken from patent US20040087561A1, “Treatment of sexual dysfunction” (priority 2000, published 2004).
